# Experiments:
# PC-12 [1] = assay: Neuroprotective activity against H2O2-induced cytotoxicity in rat PC12 cells assessed as increase in cell viability pretreated for 24 hrs followed by H2O2 addition by MTT assay; format: functional, cell-based
# Escherichia coli [2] = assay: Antibacterial activity against Escherichia coli assessed as diameter of inhibition zone measured after 24 hrs by agar well diffusion method; format: functional; also: test concentration or dose not given here
# [3] = Cytotoxicity against rat PC12 cells after 24 hrs by MTT assay; format: cell-based, PC-12; conditions: for MNTC at 24 h: read-out: MNCC
# PC-12 [4] = assay: Neuroprotective activity against H2O2-induced cytotoxicity in rat PC12 cells assessed as cell viability at EC50 pretreated for 24 hrs followed by H2O2 addition by MTT assay relative to control; format: functional
# [5] = Cytotoxicity against rat PC12 cells assessed as cell viability at MNTC after 24 hrs by MTT assay relative to control; format: cell-based, PC-12; conditions: read-out: Activity
# Staphylococcus aureus [6] = assay: Antibacterial activity against Staphylococcus aureus assessed as diameter of inhibition zone measured after 24 hrs by agar well diffusion method; format: functional; also: test concentration or dose not given here
# Pseudomonas aeruginosa [7] = assay: Antibacterial activity against Pseudomonas aeruginosa after 24 hrs by UV-vis spectrophotometric method; format: functional
# Escherichia coli [8] = assay: Antibacterial activity against Escherichia coli after 24 hrs by UV-vis spectrophotometric method; format: functional
# [9] = Cytotoxicity against rat PC12 cells assessed as cell viability at CC50 after 24 hrs by MTT assay relative to control; format: cell-based, PC-12; conditions: read-out: Activity
# Bacillus subtilis [10] = assay: Antibacterial activity against Bacillus subtilis assessed as diameter of inhibition zone measured after 24 hrs by agar well diffusion method; format: functional; also: test concentration or dose not given here
# Bacillus subtilis [11] = assay: Antibacterial activity against Bacillus subtilis after 24 hrs by UV-vis spectrophotometric method; format: functional
# Pseudomonas aeruginosa [12] = assay: Antibacterial activity against Pseudomonas aeruginosa assessed as diameter of inhibition zone measured after 24 hrs by agar well diffusion method; format: functional; also: test concentration or dose not given here
# Staphylococcus aureus [13] = assay: Antibacterial activity against Staphylococcus aureus after 24 hrs by UV-vis spectrophotometric method; format: functional
Molecule,Activity (PC-12 [1]),EC50 (PC-12 [1]),diameter of the inhibition zone (DIZ) (Escherichia coli [2]),CC50 at 24 h [3],MNTC at 24 h [3],Activity (PC-12 [4]),viability at 24 h [5],diameter of the inhibition zone (DIZ) (Staphylococcus aureus [6]),MIC (Pseudomonas aeruginosa [7]),MIC (Escherichia coli [8]),viability at 24 h [9],diameter of the inhibition zone (DIZ) (Bacillus subtilis [10]),MIC (Bacillus subtilis [11]),diameter of the inhibition zone (DIZ) (Pseudomonas aeruginosa [12]),MIC (Staphylococcus aureus [13])
Cc1c(C(=O)OCC#CCN2CCN(c3cc(C4CC4)ccc3C#N)CC2)sc2ncnc(N3CCCCC3)c12,Dose-dependent effect,16.2 µg/mL,17 mm,148 µg/mL,110 µg/mL,75.14%,99.6%,14 mm,0.0686 µg/mL,0.521 µg/mL,50.1%,16 mm,0.0581 µg/mL,17 mm,0.0422 µg/mL
Cc1c(C(=O)OCC#CCN2CCN(c3ccc(Br)cc3C#N)CC2)sc2ncnc(N3CCCCC3)c12,Dose-dependent effect,40.9 µg/mL,14 mm,136 µg/mL,96 µg/mL,76.18%,99.1%,13 mm,0.0112 µg/mL,0.0244 µg/mL,51.2%,16 mm,0.0186 µg/mL,15 mm,0.0124 µg/mL
COc1ccc(N2CCN(CC#CCOC(=O)c3sc4ncnc(N5CCCCC5)c4c3C)CC2)cc1,Dose-dependent effect,35.3 µg/mL,11 mm,140 µg/mL,80 µg/mL,76.16%,99.4%,13 mm,0.0614 µg/mL,0.622 µg/mL,49.4%,11 mm,0.0158 µg/mL,10 mm,0.313 µg/mL
GENTAMICIN,–,–,–,–,–,–,–,–,0.0242 µg/mL,0.0212 µg/mL,–,–,0.0386 µg/mL,–,0.0422 µg/mL
Cc1c(-c2nnc(-c3ccc([N+](=O)[O-])cc3)o2)sc2ncnc(N3CCOCC3)c12,Dose-dependent effect,16.2 µg/mL,16 mm,94.2 µg/mL,80 µg/mL,75.11%,99.2%,16 mm,0.0266 µg/mL,0.0382 µg/mL,49.2%,13 mm,0.0381 µg/mL,16 mm,0.046 µg/mL
Cc1c(-c2nnc(-c3ccc([N+](=O)[O-])cc3)o2)sc2ncnc(N3CCCCC3)c12,Dose-dependent effect,11.9 µg/mL,14 mm,145 µg/mL,125 µg/mL,74.78%,99%,8 mm,0.0382 µg/mL,0.0361 µg/mL,49.9%,18 mm,0.0641 µg/mL,17 mm,0.044 µg/mL
COc1ccc(-c2nnc(-c3sc4ncnc(N5CCOCC5)c4c3C)o2)cc1,Dose-dependent effect,28.2 µg/mL,12 mm,140 µg/mL,120 µg/mL,75.15%,98.3%,12 mm,0.044 µg/mL,0.012 µg/mL,51.9%,13 mm,0.0112 µg/mL,16 mm,0.0132 µg/mL
Cc1c(-c2nnc(-c3ccc(Cl)cc3)o2)sc2ncnc(N3CCCCC3)c12,Dose-dependent effect,21.8 µg/mL,15 mm,151 µg/mL,136 µg/mL,75.04%,98.2%,16 mm,0.144 µg/mL,0.186 µg/mL,48.9%,13 mm,0.0284 µg/mL,14 mm,0.0224 µg/mL
Cc1ccc(C#N)c(N2CCN(CC#CCOC(=O)c3sc4ncnc(N5CCOCC5)c4c3C)CC2)c1,Dose-dependent effect,41.3 µg/mL,13 mm,146 µg/mL,118 µg/mL,74.98%,98.5%,7 mm,0.0624 µg/mL,0.0324 µg/mL,49.1%,13 mm,0.0156 µg/mL,14 mm,0.062 µg/mL
Cc1ccc(C#N)c(N2CCN(CC#CCOC(=O)c3sc4ncnc(N5CCCCC5)c4c3C)CC2)c1,Dose-dependent effect,38.2 µg/mL,15 mm,114 µg/mL,96 µg/mL,76.04%,98.2%,13 mm,0.0624 µg/mL,0.0144 µg/mL,49%,13 mm,0.0312 µg/mL,14 mm,0.122 µg/mL
COc1cccc(N2CCN(CC#CCOC(=O)c3sc4ncnc(N5CCCCC5)c4c3C)CC2)c1,Dose-dependent effect,40.4 µg/mL,13 mm,144 µg/mL,96 µg/mL,75.08%,98.2%,10 mm,0.0842 µg/mL,0.0384 µg/mL,51%,13 mm,0.521 µg/mL,14 mm,0.0244 µg/mL
COc1ccc(N2CCN(CC#CCOC(=O)c3sc4ncnc(N5CCOCC5)c4c3C)CC2)cc1,Dose-dependent effect,36.2 µg/mL,12 mm,144 µg/mL,60 µg/mL,74.89%,98.1%,8 mm,0.062 µg/mL,0.12 µg/mL,49.1%,12 mm,0.062 µg/mL,14 mm,0.062 µg/mL
Cc1c(-c2nnc(-c3ccccc3)o2)sc2ncnc(N3CCOCC3)c12,Dose-dependent effect,10.6 µg/mL,16 mm,200 µg/mL,160 µg/mL,76.18%,99.5%,16 mm,0.0186 µg/mL,0.0211 µg/mL,50.4%,12 mm,0.0366 µg/mL,11 mm,0.0412 µg/mL

# — ChEMBL document CHEMBL4219188, “Design, synthesis, neuroprotective, antibacterial activities and docking studies of novel thieno[2,3-d]pyrimidine-alkyne Mannich base and oxadiazole hybrids” (Bioorg Med Chem Lett, 2018)
